Test results: patent publication US9445589B2, “Active compounds combinations comprising a lipo-chitooligosaccharide derivative and a nematicide, insecticidal or fungicidal compound” (Bayer CropScience AG, priority 2012, dated 2016)

Test system: Maize seedlings
Test: Maize seedlings shoot weight (seed treatment, greenhouse)
Format: in vivo
Description: Maize seeds are grown in loamy sand in the greenhouse at 20 C and 70% humidity for 11 days. After 11 days seedlings were cut off above the soil and fresh weight was determined. Compounds are applied at the following concentration: Poncho™ (pesticidal product comprising clothianidin as active ingredient): 250 μg of clothianidin/kernel; VOTiVO™ (product based on the natural soil bacteria Bacillus firmus (strain I-1582): 50 μg/kernel; Compound A of formula (I): 0.01 μg/kernel. The test is evaluated 11 days after the application. 100% means shoot weight which corresponds to that of the untreated control. Efficacy means in this case the additional % of shoot weight in comparison to that of the untreated control.

## CCCCCC/C=C\CCCOc1cccc(C(=O)N[C@@H]2C(O[C@H]3C(O)C(NC(C)=O)C(OC4C(CO)O[C@@H](O[C@H]5C(O)C(NC(C)=O)C(OC6C(CO)OC(O)[C@@H](NC(C)=O)[C@@H]6O)O[C@H]5CO)[C@@H](NC(C)=O)[C@@H]4O)O[C@H]3CO)OC(CO)[C@@H](O)[C@@H]2O)c1 (stereo partly drawn) [Compound A of formula (I)]
Additional % of shoot weight in comparison to untreated control, 11 days after application
  Efficacy %: 7%
Fresh weight after 11 days in loamy sand, greenhouse 20 C, 70% humidity, clothianidin 250 μg/kernel, VOTiVO 50 μg/kernel, Compound A 0.01 μg/kernel
  Seedling shoot weight (g) (Average on 3 replicates): 15.3 g
Shoot weight relative to untreated control (100%), 11 days after application, same application rates
  Found %: 107%
